Test [1] has as its target T1, Thromboxane A2 receptor (Rattus norvegicus, UniProt P34978).
T1 sequence (P34978 whole entry): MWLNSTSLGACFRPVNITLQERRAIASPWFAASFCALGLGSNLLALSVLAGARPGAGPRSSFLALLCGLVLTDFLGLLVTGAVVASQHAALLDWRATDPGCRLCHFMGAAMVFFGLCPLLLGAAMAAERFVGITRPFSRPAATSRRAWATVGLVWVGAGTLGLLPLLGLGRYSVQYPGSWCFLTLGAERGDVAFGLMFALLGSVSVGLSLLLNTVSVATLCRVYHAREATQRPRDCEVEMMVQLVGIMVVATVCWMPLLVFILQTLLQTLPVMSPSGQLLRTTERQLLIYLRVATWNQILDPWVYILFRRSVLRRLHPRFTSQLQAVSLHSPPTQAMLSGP
The experiment in a line: In vitro thromboxane A2 receptor antagonism through inhibition of U-46619-induced contraction of rat isolated thoracic aortic strip. The format is functional. The note with it: read-out: pA2 (converted).

Test [2] concerns the target T2, Thromboxane A2 receptor (Homo sapiens, UniProt P21731).
T2 sequence (P21731 whole entry): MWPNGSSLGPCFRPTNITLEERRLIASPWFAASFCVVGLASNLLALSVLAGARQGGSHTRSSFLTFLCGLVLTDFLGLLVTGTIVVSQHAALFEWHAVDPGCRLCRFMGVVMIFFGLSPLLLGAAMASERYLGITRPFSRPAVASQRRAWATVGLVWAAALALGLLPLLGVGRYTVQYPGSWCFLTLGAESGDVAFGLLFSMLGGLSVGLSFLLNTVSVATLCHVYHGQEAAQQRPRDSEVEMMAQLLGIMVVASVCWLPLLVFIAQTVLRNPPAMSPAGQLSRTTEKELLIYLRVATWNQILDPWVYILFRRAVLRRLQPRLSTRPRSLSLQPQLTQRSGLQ
Briefly: In vitro thromboxane A2 receptor antagonism through inhibition of U-46619-induced platelet aggregation in human whole blood. The format is functional, tissue-based. As to conditions: read-out: pA2 (converted).

Test [3] deals with T3, Thromboxane A2 receptor (Rattus norvegicus) (UniProt P34978).
T3 sequence (whole entry): T1 sequence (P34978 whole entry)
The experiment in a line: In vitro thromboxane receptor antagonism through inhibition of U-46619-induced contraction of rat isolated thoracic aortic strip. The format is functional.

Each structure is given as a SMILES string. Values joined by “and” are separate entries in the source; they are usually repeats but may differ in a detail not shown here. Identical values can stand only once.

Usually pKb stands for −log10 of the Kb, conventionally taken in molar units. Read a high pKb as a low Kb.

As to `O=C(O)CC/C=C\CO[C@H]1C(OCc2ccc(-c3ccccc3CO)cc2)CC[C@@H]1N1CCCCCC1` (stereo not given in full), the values for the Kb in test [1] and in test [2] were 6.31 nM and 3.16 nM, respectively.

On to `NC(=O)Cc1ccccc1-c1ccc(COC2CC[C@H](N3CCCCCC3)[C@H]2OC/C=C\CCC(=O)O)cc1` (stereo not given in full), for which the Kb was 158 nM in test [1] and 7.94 nM in test [2].

With `CNS(=O)(=O)Cc1ccc(-c2ccc(COC3CC[C@H](N4CCCCCC4)[C@H]3OC/C=C\CCC(=O)O)cc2)cc1` (stereo not given in full), the results for the Kb in test [1] and in test [2] were 15.8 nM and 3.16 nM, respectively.

With `CS(=O)(=O)Nc1ccccc1-c1ccc(COC2CC[C@H](N3CCCCCC3)[C@H]2OC/C=C\CCC(=O)O)cc1` (stereo not given in full), the figures for the Kb in test [1] and in test [2] were 3.98 nM and 10 nM, respectively.

On to `NC(=O)Nc1ccccc1-c1ccc(COC2CC[C@H](N3CCCCCC3)[C@H]2OC/C=C\CCC(=O)O)cc1` (stereo not given in full), for which the Kb in test [1] was 63.1 nM; in test [2], 7.94 nM.

In the case of `O=C(O)CC/C=C\CO[C@H]1C(OCc2ccc(-c3ccc(O)cc3)cc2)CC[C@@H]1N1CCCCCC1` (stereo not given in full), the Kb in test [1] and in test [2] was 6.31 nM in each case.

`O=C(O)CC/C=C\CO[C@@H]1[C@@H](OCc2ccc(-c3ccccc3)cc2)CC[C@@H]1N1CCCCC1`: the results for the Kb in test [1] and in test [2] were 1000 nM and 100 nM, respectively.

Take `O=C(O)CC/C=C\CO[C@H]1C(OCc2ccc(-c3cccc(CO)c3)cc2)CC[C@@H]1N1CCCCCC1` (stereo not given in full): the Kb in test [1] was 12.6 nM; in test [2] it was 7.94 nM.

As to `CC(=O)NCc1ccccc1-c1ccc(COC2CC[C@H](N3CCCCCC3)[C@H]2OC/C=C\CCC(=O)O)cc1` (stereo not given in full), the values for the Kb in test [1] and in test [2] were 126 nM and 25.1 nM, respectively.

For the compound `NC(=O)c1ccccc1-c1ccc(COC2CC[C@H](N3CCCCCC3)[C@H]2OC/C=C\CCC(=O)O)cc1` (stereo not given in full), the Kb in test [1] and in test [2] was 15.8 nM in each case.

In the case of `O=C(O)CC/C=C\CO[C@H]1C(OCc2ccc(-c3ccc(CO)cc3)cc2)CC[C@@H]1N1CCCCCC1` (stereo not given in full), the figures for the Kb in test [1] and in test [2] were 20 nM and 3.16 nM, respectively.

As for `O=C(O)CC/C=C\CO[C@H]1C(OCc2ccc(-c3ccccc3)cc2)CC[C@@H]1N1CCCCCC1` (stereo not given in full), the results for the Kb in test [1] and in test [2] were 25.1 nM and 12.6 nM, respectively.

As for `O=C(O)CC/C=C\CO[C@H]1[C@@H](OCc2ccc(-c3ccccc3CO)cc2)CC[C@@H]1N1CCCCCC1`, the Kb in test [1] is 12.6 nM; in test [2], 1.58 nM.

As for `O=C(O)CC/C=C\CO[C@H]1C(OCc2ccc(-c3ccccc3O)cc2)CC[C@@H]1N1CCCCCC1` (stereo not given in full), the figures for the Kb in test [1] and in test [2] were 20 nM and 15.8 nM, respectively.

For `O=C(O)CC/C=C\CO[C@H]1C(OCc2ccc(-c3ccccc3)cc2)CC[C@@H]1N1CCCCC1` (stereo not given in full), the Kb in test [2] was 63.1 nM and 15.8 nM.

For `O=C(O)CC/C=C\CO[C@H]1[C@H](OCc2ccc(-c3ccccc3CO)cc2)CC[C@@H]1N1CCCCCC1`, the Kb in test [2] is 6.31 nM. In test [3], the pKb came to 8.5.

Turning to `O=C(O)CC/C=C\CO[C@H]1[C@@H](OCc2ccc(-c3cccc(CO)c3)cc2)CC[C@@H]1N1CCCCCC1`, the results for the Kb in test [1] and in test [2] were 79.4 nM and 5.01 nM, respectively.

As for `CC(=O)NCc1ccc(-c2ccc(COC3CC[C@H](N4CCCCCC4)[C@H]3OC/C=C\CCC(=O)O)cc2)cc1` (stereo not given in full), the Kb in test [1] is 20 nM; in test [2] it was 2.51 nM.

As to `O=C(O)CC/C=C\CO[C@H]1[C@@H](OCc2ccc(-c3ccccc3)cc2)CC[C@@H]1N1CCCCCC1`, the values for the Kb in test [1] and in test [2] were 39.8 nM and 5.01 nM, respectively.

In the case of `O=C(O)CC/C=C\CO[C@@H]1C(OCc2ccc(-c3ccccc3)cc2)CC[C@@H]1N1CCCCC1` (stereo not given in full), the Kb is 15.8 nM in test [1] and 39.8 nM in test [2].

`NC(=O)Cc1ccc(-c2ccc(COC3CC[C@H](N4CCCCCC4)[C@H]3OC/C=C\CCC(=O)O)cc2)cc1` (stereo not given in full): the Kb in test [1] was 20 nM; in test [2], 3.98 nM.

Turning to `CS(=O)(=O)Nc1ccccc1-c1ccc(CO[C@H]2CC[C@H](N3CCCCCC3)[C@H]2OC/C=C\CCC(=O)O)cc1`, the Kb is 63.1 nM in test [1] and 6.31 nM in test [2].

For `NC(=O)c1ccc(-c2ccc(COC3CC[C@H](N4CCCCCC4)[C@H]3OC/C=C\CCC(=O)O)cc2)cc1` (stereo not given in full), the Kb in test [1] is 20 nM; in test [2] it was 3.16 nM.

For the compound `CS(=O)(=O)Nc1cccc(-c2ccc(COC3CC[C@H](N4CCCCCC4)[C@H]3OC/C=C\CCC(=O)O)cc2)c1` (stereo not given in full), the Kb was 50.1 nM in test [1] and 12.6 nM in test [2].

For `O=C(O)CC/C=C\CO[C@H]1C(OCc2ccc(-c3ccccc3CCO)cc2)CC[C@@H]1N1CCCCCC1` (stereo not given in full), the Kb in test [1] was 31.6 nM; in test [2], 2 nM.

As for `O=C(O)CC/C=C\CO[C@H]1[C@@H](OCc2ccc(-c3ccc(CO)cc3)cc2)CC[C@@H]1N1CCCCCC1`, the Kb in test [1] was 50.1 nM; in test [2], 3.98 nM.

`O=C(O)CC/C=C\CO[C@H]1[C@@H](OCc2ccc(-c3ccccc3)cc2)CC[C@@H]1N1CCCCC1`: the Kb in test [1] is 31.6 nM and 50.1 nM; in test [2] it was 10 nM and 7.94 nM.

As to `CNS(=O)(=O)Cc1ccccc1-c1ccc(COC2CC[C@H](N3CCCCCC3)[C@H]2OC/C=C\CCC(=O)O)cc1` (stereo not given in full), the Kb is 12.6 nM in test [1] and 7.94 nM in test [2].

The values are drawn from ChEMBL document CHEMBL1125965, “Synthesis and pharmacological evaluation of novel Amino-prostanoids: potent and orally effective thromboxane A2 receptor antagonists” (Bioorg Med Chem Lett, 1991).
